Earlier results as cited in patent publication US11026985B2, “Methods for removing contaminants from plant-derived pharmaceuticals” (priority 2018, dated 2021).

Legend:
[1] = permissible limit in Cannabis, State of Oregon

Row | Compound | Action Level (ppm) [1] [ppm] | other results
1 | Abamectin | 0.5 | –
2 | CO/N=C(/C(=O)OC)c1ccccc1CO/N=C(\C)c1cccc(C(F)(F)F)c1 [Trifloxystrobin] | 0.2 | –
3 | COc1ccc(-c2ccccc2)cc1NNC(=O)OC(C)C [Bifenazate] | 0.2 | –
4 | CN1COCN(Cc2cnc(Cl)s2)/C1=N\[N+](=O)[O-] [Thiamethoxam] | 0.2 | –
5 | CCCCCCCCCCCCC1=C(OC(C)=O)C(=O)c2ccccc2C1=O [Acequinocyl] | 2 | –
6 | CCOc1ccc(C(C)(C)COCc2cccc(Oc3ccccc3)c2)cc1 [Etofenprox] | 0.4 | –
7 | CNC(=O)Oc1cccc2c1OC(C)(C)C2 [Carbofuran] | 0.2 | –
8 | COP(=O)(OC)OC=C(Cl)Cl [DDVP (Dichlorvos)] | 0.1 | –
9 | CC1(C)C(C=C(Cl)Cl)C1C(=O)OCc1cccc(Oc2ccccc2)c1 (stereo not shown) [Permethrins] | 0.2 | –
10 | N#C/N=C1\SCCN1Cc1ccc(Cl)nc1 [Thiacloprid] | 0.2 | –
11 | CCCCCc1cc(O)c(C/C=C(\C)CCC=C(C)C)c(O)c1 [Cannabigerol] | – | Water Soluble?: No
12 | CC1(C)C(C=C(Cl)Cl)C1C(=O)OC(C#N)c1ccc(F)c(Oc2ccccc2)c1 (stereo not shown) [Cyfluthrin] | 1 | –
13 | CO/N=C(/C(=O)OC)c1ccccc1COc1ccccc1C [Kresoxim-methyl, Kresoxim- methyl] | 0.4 | –
14 | CCOCn1c(-c2ccc(Cl)cc2)c(C#N)c(Br)c1C(F)(F)F [Chlorfenapyr] | 1 | –
15 | CNC(=O)O/N=C/C(C)(C)SC [Aldicarb] | 0.4 | –
16 | CCOP(=S)(OCC)Oc1cc(C)nc(C(C)C)n1 [Diazinon] | 0.2 | –
17 | CCOc1cc(C(C)(C)C)ccc1C1COC(c2c(F)cccc2F)=N1 (stereo not shown) [Etoxazole] | 0.2 | –
18 | CCOC(=O)NCCOc1ccc(Oc2ccccc2)cc1 [Fenoxycarb] | 0.2 | –
19 | CCCC1COC(Cn2cncn2)(c2ccc(Cl)cc2Cl)O1 (stereo not shown) [Propiconazole] | 0.4 | –
20 | CCOC(=O)OC1=C(c2cc(C)ccc2C)C(=O)N[C@]12CC[C@@H](OC)CC2 [Spirotetramat] | 0.2 | –
21 | COP(=O)(OC)OC(Br)C(Cl)(Cl)Br (stereo not shown) [Naled] | 0.5 | –
22 | CNC(=O)Oc1cc(C)c(SC)c(C)c1 [Methiocarb] | 0.2 | –
23 | C=CCOC(Cn1ccnc1)c1ccc(Cl)cc1Cl (stereo not shown) [Imazalil] | 0.2 | –
24 | N#Cc1nn(-c2c(Cl)cc(C(F)(F)F)cc2Cl)c(N)c1[S+]([O-])C(F)(F)F (stereo not shown) [Fipronil] | 0.4 | –
25 | Spinosad | 0.2 | –
26 | CNC(=O)Oc1cccc2ccccc12 [Carbaryl] | 0.2 | –

Row | Compound | Action Level (ppm) [1] [ppm] | other results
27 | CNC(=O)O/N=C(\SC)C(=O)N(C)C [Oxamyl] | 1 | –
28 | CNC(=O)CSP(=S)(OC)OC [Dimethoate] | 0.2 | –
29 | CNC(=O)c1cc(Cl)cc(C)c1NC(=O)c1cc(Br)nn1-c1ncccc1Cl [Chlorantraniliprole] | 0.2 | –
30 | Cc1cc(C)c(C2=C(OC(=O)CC(C)(C)C)C3(CCCC3)OC2=O)c(C)c1 [Spiromesifen] | 0.2 | –
31 | CCOC(=O)CC(SP(=S)(OC)OC)C(=O)OCC (stereo not shown) [Malathion] | 0.2 | –
32 | C/C(=N\C#N)N(C)Cc1ccc(Cl)nc1 [Acetamiprid] | 0.2 | –
33 | COP(=S)(OC)SCN1C(=O)c2ccccc2C1=O [Phosmet] | 0.2 | –
34 | Cc1c(COC(=O)[C@@H]2[C@H](/C=C(\Cl)C(F)(F)F)C2(C)C)cccc1-c1ccccc1 (racemic) [Bifenthrin] | 0.2 | –
35 | O=[N+]([O-])NC1=NCCN1Cc1ccc(Cl)nc1 [Imidacloprid] | 0.4 | –
36 | CC1C(c2ccc(Cl)cc2)SC(=O)N1C(=O)NC1CCCCC1 (stereo not shown) [Hexythiazox] | 1 | –
37 | Cc1nn(C)c(Oc2ccccc2)c1/C=N/OCc1ccc(C(=O)OC(C)(C)C)cc1 [Fenpyroximate] | 0.4 | –
38 | CCCCC(CC)CN1C(=O)C2C3C=CC(C3)C2C1=O (stereo not shown) [MGK-264] | 0.2 | –
39 | CNC(=O)ON=C(C)SC [Methomyl] | 0.4 | –
40 | C#CCC1=C(C)C(OC(=O)[C@@H]2[C@@H](C=C(C)C)C2(C)C)CC1=O (stereo partly shown) [Prallethrin] | 0.2 | –
41 | C=C(C)[C@@H]1CCC(C)=C[C@H]1c1c(O)cc(CCC)cc1O [Cannabidivarin] | – | Water Soluble?: No
42 | COCC(=O)N(c1c(C)cccc1C)C(C)C(=O)OC (stereo not shown) [Metalaxyl] | 0.2 | –
43 | N#CCNC(=O)c1cnccc1C(F)(F)F [Flonicamid] | 1 | –
44 | O=C(Nc1ccccc1-c1ccc(Cl)cc1)c1cccnc1Cl [Boscalid] | 0.4 | –
45 | CCCCOCCOCCOCc1cc2c(cc1CCC)OCO2 [Piperonyl butoxide] | – | toxicity to humans (humans): non-toxic
46 | CCCCC(C#N)(Cn1cncn1)c1ccc(Cl)cc1 (stereo not shown) [Myclobutanil] | 0.2 | –
47 | CNC(=O)Oc1ccccc1OC(C)C [Propoxur] | 0.2 | –
48 | COP(=O)(NC(C)=O)SC (stereo not shown) [Acephate] | 0.4 | –
49 | CC(C)(C)C(O)(CCc1ccc(Cl)cc1)Cn1cncn1 (stereo not shown) [Tebuconazole] | 0.4 | –
50 | CCCN(CC)CC1COC2(CCC(C(C)(C)C)CC2)O1 (stereo not shown) [Spiroxamine] | 0.4 | –
51 | N#Cc1c[nH]cc1-c1cccc2c1OC(F)(F)O2 [Fludioxonil] | 0.4 | –
52 | CC(C)(C)c1ccc(CSc2cnn(C(C)(C)C)c(=O)c2Cl)cc1 [Pyridaben] | 0.2 | –
